From US20210300939A1, “Single Molecule Compounds Providing Multi-Target Inhibition of BTK and Other Proteins and Methods of Use Thereof” (SignalRx Pharmaceuticals, Inc., priority 2018, published 2021)

What was measured:
[1] = test system: pBTK in JeKo-BTK-C481S cells; assay: Washout immunoblot for pBTK in JeKo-BTK-C481S cells; format: cell-based, human; conditions: 3 hours, washed with PBS, 4 hours recovery, FIG. 6C
[2] = molecular target: T1, BRD4-2 (binding domain 2 of BRD4) (Homo sapiens, UniProt O60885); assay: BRD4 binding domain 2 inhibition (Reaction Biology Corp.); conditions: 10-point curve; read-out: Target IC50 BRD4-2
T1 construct: purchased Reaction Biology Corp., Malvern, Pa; (contract assay)
Description: (§1) The BTK, PI3K, and/or bromodomain inhibitory activity of a compound of the invention can be determined by methods known to the skilled artisan, or by procuring relevant analysis by a commercial vendor offering such services. […] In vivo, PI3K inhibition can be determined from target tissue biopsies by standard tissue processing in which cells are disrupted and Western Blot analysis is performed to determine the presence or absence of pAKT (substrate of PI3K) relative to a control sample. PI3K inhibition assays and BTK inhibition assays are known in the art and can be procured commercially through vendors such as Reaction Biology (Malvern, Pa.). The activity of a compound of the invention as an inhibitor of a bromodomain-containing protein, such as a BET protein, including BRD2, BRD3, BRD4, and/or BRDT, or an isoform or mutant thereof, may be determined in vitro, in vivo, or in a cell line. In vitro assays include assays that determine inhibition of bromodomain-containing proteins. Alternatively, inhibitor binding may be determined by running a competition experiment where a provided compound is incubated with a bromodomain-containing protein, such as a BET protein bound to known ligands, labeled or unlabeled. In vitro bromodomain inhibition assays can be performed using Alpha Screen Technology (Perkin Elmer Life and Analytical Sciences, Shelton, Conn.). In vivo bromodomain inhibition can be determined indirectly by evaluating the amount of a protein whose gene transcription is influenced or controlled by the bromodomain protein, for example, MYCN protein transcription is controlled by BRD4 (J. E. Delmore et al., Cell 2011, 146, 904-917; A. Puissant, Cancer Discov. 2013, 3, 308-323).
(§2) Compounds of the invention were analyzed for their ability to inhibit target proteins in vitro. PI3K alpha, gamma, and delta inhibition activity was determined by Thermo Fisher Scientific-Biosciences Life Sciences Solutions, Madison, Wis. The bromodomain protein inhibition (binding domain 1 and 2 of BRD4) was determined at Reaction Biology Corp., Malvern, Pa. BTK inhibition was performed by Reaction Biology Corp., Malvern, Pa.
(§3) Additional information regarding the testing procedures is available at each company's website on the internet. The IC50 data was calculated from a 10-point curve by the vendor and is compiled in ranges in the Table 6 below.

[3] = test system: pBTK(Y223) in JeKo and Mino cells; assay: Western blot, phosphorylation of BTK at Tyr223 in anti-IgM stimulated cells; format: cell-based, human; conditions: for Suppression of pBTK (Tyr223): anti-IgM stimulated JeKo and Mino cells, FIGS. 2A-2D; for Suppression of pBTK(Y223): JeKo cells stimulated with F(ab′) and anti-human IgM, various concentrations, FIG. 3B
[4] = test system: Mino cells; assay: Percentage cells in apoptosis, Mino; format: cell-based, human; conditions: 24-hour
From the text: (§4) Additionally apoptosis data was obtained in both JeKo and Mino cells for compound 7.

[5] = molecular target: T2, PI3K δ (Homo sapiens, UniProt O00329); assay: PI3K delta inhibition (Thermo Fisher Scientific); format: biochemical; conditions: 10-point curve; read-out: Target IC50 PI3K δ
T2 construct: purchased Thermo Fisher Scientific-Biosciences Life Sciences Solutions, Madison, Wis; (contract assay)
T2 sequence (O00329 whole entry): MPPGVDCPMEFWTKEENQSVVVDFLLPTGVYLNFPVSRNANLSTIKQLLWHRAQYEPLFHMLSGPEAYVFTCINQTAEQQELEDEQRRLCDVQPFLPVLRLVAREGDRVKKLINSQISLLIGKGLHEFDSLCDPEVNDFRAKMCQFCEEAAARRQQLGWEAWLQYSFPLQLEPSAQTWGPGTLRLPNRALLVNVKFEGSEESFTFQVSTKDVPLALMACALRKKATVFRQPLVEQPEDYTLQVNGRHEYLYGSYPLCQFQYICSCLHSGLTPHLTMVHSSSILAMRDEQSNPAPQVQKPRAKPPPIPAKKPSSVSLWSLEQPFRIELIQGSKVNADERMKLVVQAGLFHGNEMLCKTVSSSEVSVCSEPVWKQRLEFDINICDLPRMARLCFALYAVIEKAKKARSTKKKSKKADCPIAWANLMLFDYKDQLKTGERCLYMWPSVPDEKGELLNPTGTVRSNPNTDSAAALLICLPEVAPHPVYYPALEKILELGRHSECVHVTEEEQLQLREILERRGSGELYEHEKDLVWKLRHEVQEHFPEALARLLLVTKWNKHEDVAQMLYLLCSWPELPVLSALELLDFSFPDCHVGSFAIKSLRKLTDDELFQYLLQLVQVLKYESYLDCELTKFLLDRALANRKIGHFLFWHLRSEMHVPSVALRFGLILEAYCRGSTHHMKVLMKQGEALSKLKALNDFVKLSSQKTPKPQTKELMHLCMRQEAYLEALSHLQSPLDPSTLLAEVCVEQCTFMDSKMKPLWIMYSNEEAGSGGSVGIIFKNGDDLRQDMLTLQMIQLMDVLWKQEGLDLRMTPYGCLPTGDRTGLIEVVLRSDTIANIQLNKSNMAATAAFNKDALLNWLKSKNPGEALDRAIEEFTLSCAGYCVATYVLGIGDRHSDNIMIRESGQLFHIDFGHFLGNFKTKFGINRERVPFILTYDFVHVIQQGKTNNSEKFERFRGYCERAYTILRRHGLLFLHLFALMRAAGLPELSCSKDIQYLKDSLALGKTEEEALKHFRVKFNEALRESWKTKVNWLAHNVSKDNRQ
T2 sequence (P27986 whole entry partner): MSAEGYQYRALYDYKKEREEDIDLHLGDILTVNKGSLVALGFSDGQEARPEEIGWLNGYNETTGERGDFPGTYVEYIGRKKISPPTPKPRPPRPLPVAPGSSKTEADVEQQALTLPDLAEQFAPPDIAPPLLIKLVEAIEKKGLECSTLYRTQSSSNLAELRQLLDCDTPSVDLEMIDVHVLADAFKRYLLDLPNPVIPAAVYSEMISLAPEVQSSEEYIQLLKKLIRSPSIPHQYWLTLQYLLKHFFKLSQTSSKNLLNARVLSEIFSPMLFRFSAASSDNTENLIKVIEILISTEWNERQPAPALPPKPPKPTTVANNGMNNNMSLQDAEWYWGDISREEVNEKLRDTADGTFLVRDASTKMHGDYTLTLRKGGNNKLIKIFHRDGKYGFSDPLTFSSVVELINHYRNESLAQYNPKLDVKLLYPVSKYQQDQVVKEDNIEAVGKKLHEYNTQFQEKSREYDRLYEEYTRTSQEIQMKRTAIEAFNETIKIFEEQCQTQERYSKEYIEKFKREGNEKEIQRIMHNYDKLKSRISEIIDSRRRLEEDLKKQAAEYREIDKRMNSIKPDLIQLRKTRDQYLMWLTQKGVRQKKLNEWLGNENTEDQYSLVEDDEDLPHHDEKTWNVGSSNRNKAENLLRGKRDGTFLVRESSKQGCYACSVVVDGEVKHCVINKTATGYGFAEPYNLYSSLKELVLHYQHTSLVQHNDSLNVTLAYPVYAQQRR
Description: as §1, §2, §3

[6] = molecular target: T3, BTK (WT) (Homo sapiens, UniProt Q06187); assay: native BTK inhibition (Reaction Biology Corp.); format: biochemical; conditions: 10-point curve; read-out: Target IC50 BTK (WT)
T3 construct: purchased Reaction Biology Corp., Malvern, Pa; (contract assay)
T3 sequence (Q06187 whole entry): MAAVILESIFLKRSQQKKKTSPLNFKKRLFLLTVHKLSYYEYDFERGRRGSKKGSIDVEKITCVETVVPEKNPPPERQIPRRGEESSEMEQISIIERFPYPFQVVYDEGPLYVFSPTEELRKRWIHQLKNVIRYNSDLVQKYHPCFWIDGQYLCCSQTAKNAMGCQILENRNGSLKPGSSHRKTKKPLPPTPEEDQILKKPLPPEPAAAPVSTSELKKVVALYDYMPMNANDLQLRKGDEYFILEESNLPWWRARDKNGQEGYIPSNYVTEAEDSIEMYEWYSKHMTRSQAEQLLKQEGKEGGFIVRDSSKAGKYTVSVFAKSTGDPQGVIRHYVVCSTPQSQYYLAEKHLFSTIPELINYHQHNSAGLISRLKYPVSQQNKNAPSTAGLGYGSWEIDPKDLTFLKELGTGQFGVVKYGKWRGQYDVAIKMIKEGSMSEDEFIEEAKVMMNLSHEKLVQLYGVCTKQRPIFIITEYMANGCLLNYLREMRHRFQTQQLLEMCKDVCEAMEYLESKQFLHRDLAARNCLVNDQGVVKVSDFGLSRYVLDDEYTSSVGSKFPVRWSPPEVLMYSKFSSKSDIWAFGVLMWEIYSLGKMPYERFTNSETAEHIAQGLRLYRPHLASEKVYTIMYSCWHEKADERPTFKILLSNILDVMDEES
Description: as §2, §3

[7] = molecular target: T4, PI3K α (Homo sapiens, UniProt P42336); assay: PI3K alpha inhibition (Thermo Fisher Scientific); format: biochemical; conditions: 10-point curve; read-out: Target IC50 PI3K α
T4 construct: purchased Thermo Fisher Scientific-Biosciences Life Sciences Solutions, Madison, Wis; (contract assay)
T4 sequence (P42336 whole entry): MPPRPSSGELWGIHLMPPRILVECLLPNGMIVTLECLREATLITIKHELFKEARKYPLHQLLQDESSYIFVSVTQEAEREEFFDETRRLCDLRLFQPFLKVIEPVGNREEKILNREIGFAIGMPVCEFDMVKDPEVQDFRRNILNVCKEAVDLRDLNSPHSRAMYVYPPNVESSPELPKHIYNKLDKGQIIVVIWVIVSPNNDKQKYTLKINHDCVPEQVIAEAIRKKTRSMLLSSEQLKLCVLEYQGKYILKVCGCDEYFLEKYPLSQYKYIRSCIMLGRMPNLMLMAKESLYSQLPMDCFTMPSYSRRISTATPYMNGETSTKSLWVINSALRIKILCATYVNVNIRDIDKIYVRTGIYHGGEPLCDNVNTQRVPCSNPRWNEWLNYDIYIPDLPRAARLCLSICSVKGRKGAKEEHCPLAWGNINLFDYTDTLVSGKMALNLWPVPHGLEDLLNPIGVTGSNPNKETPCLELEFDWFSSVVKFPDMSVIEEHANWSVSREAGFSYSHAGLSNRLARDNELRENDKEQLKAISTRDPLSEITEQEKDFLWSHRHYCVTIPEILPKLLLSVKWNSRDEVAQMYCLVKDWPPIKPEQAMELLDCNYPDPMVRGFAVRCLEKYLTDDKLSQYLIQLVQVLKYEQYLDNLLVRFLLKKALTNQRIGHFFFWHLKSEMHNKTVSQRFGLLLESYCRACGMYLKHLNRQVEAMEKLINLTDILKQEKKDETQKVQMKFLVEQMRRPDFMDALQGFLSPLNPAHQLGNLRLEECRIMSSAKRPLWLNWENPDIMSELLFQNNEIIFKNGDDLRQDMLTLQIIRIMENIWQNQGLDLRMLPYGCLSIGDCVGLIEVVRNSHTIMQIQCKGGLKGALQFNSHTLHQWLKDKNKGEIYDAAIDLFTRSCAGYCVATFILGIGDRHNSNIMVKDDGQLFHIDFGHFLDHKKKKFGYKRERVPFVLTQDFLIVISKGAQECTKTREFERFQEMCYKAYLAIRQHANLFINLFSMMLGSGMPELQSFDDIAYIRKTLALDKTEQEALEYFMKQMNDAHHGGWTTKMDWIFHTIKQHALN
T4 sequence (P27986 whole entry partner): as the sequence (P27986 whole entry partner) above
Description: as §1, §2, §3

[8] = test system: Granta519 cells; assay: Cell viability (Celltiter-Glo), Granta519; format: cell-based; conditions: Homo sapiens, Granta-519, 48 hours
Description: (§5) The results of this experiment are shown in FIGS. 1A-1C, and in Table 7 below. Human mantle cell lymphoma cell lines were grown in 96 well plates with 5000 cells per well in RPMI 1640 media supplemented with 10% fetal bovine serum. Cells were treated for 48 hours with a concentration range of each compound from 50 nM to 50 uM. Cell viability a measure of viable cell numbers was determined using a Celltiter-Glo^R reagent for each concentration in order to construct an IC50 curve for each compound in each cell line.

[9] = molecular target: T5, PI3K γ (Homo sapiens, UniProt P48736); assay: PI3K gamma inhibition (Thermo Fisher Scientific); format: biochemical; conditions: 10-point curve; read-out: Target IC50 PI3K γ
T5 construct: purchased Thermo Fisher Scientific-Biosciences Life Sciences Solutions, Madison, Wis; (contract assay)
T5 sequence (P48736 whole entry): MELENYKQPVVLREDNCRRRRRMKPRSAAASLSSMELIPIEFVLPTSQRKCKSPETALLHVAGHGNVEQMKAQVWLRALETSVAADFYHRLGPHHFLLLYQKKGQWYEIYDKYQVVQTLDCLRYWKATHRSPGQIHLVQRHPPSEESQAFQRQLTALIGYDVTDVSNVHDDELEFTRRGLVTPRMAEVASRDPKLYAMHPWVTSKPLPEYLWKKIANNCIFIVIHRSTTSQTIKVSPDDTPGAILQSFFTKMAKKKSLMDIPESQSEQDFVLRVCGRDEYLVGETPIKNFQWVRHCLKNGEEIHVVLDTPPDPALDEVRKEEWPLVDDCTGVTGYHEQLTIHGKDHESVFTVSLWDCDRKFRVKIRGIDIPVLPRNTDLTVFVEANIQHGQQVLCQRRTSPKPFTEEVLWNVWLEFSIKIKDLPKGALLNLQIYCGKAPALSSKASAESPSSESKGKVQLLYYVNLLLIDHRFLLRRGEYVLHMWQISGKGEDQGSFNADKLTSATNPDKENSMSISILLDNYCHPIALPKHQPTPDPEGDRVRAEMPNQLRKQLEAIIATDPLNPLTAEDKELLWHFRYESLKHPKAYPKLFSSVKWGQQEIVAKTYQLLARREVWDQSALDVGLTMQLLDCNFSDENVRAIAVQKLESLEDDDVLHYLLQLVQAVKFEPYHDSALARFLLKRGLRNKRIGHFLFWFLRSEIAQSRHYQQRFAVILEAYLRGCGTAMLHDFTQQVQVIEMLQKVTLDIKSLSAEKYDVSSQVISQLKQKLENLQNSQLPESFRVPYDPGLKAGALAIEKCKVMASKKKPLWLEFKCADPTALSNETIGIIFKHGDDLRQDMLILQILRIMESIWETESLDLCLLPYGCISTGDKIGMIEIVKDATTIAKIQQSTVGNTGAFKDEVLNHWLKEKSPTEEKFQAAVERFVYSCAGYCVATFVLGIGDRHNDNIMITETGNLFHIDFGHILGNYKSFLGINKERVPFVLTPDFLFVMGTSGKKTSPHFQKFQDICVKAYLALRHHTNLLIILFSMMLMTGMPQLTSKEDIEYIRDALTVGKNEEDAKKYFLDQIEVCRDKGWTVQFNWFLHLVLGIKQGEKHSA
Description: as §1, §2, §3

[10] = test system: Mino cells; assay: Cell viability (Celltiter-Glo), Mino; format: cell-based; conditions: Homo sapiens, 48 hours
Description: as §5

[11] = molecular target: T6, fluorophore-tagged BRD4 fusion protein (Homo sapiens, UniProt O60885); assay: Chromatin-release assay in JeKo cells; format: cell-based; conditions: 1 μM, confocal microscopy
T6 construct: expressed in transfected cells; host or cells: JeKo cells
Description: A chromatin-release assay was performed on JeKo cells treated with 1 μM Compound 7.

[12] = test system: pAKT(S473) in JeKo-BTK-WT and JeKo-BTK-C481S cells; assay: Western blot for pAKT in JeKo-BTK wild-type and JeKo-BTK-C481S cells; format: cell-based, human; conditions: 1 hour, different concentrations, FIGS. 6A and 6B
[13] = molecular target: T7, BRD4-1 (binding domain 1 of BRD4) (Homo sapiens, UniProt O60885); assay: BRD4 binding domain 1 inhibition (Reaction Biology Corp.); conditions: 10-point curve; read-out: Target IC50 BRD4-1
T7 construct: purchased Reaction Biology Corp., Malvern, Pa; (contract assay)
Description: as §1, §2, §3

[14] = test system: JeKo-1 cells; assay: Cell viability (Celltiter-Glo), JeKo-1; format: cell-based; conditions: Homo sapiens, 48 hours
Description: as §5

[15] = molecular target: T8, BTK (C481S) (Homo sapiens, UniProt Q06187, C481S); assay: BTK cysteine mutant C481S inhibition (Reaction Biology Corp.); format: biochemical; conditions: for IC50: 10-point curve, read-out: Target IC50 BTK (C481S); for Ratio C481S/WT: ratio of the BTK IC50 values, C481S over wild-type
T8 construct: purchased Reaction Biology Corp., Malvern, Pa; (contract assay)
T8 sequence (Q06187 whole entry C481S): as the sequence (Q06187 whole entry) above, with C481S counted along it
Description: as §2, §3

[16] = test system: JeKo and Mino cells; assay: Apoptosis, both mantle cell lymphoma lines (overall statement); format: cell-based, human
From the text: as §4

[17] = test system: pBTK(Y223) in JeKo-BTK-WT and JeKo-BTK-C481S cells; assay: Western blot for pBTK(Y223) in JeKo-BTK wild-type and JeKo-BTK-C481S cells; format: cell-based, human; conditions: 1 hour, different concentrations, FIGS. 6A and 6B
[18] = test system: JeKo-1 cells; assay: Percentage cells in apoptosis, JeKo-1; format: cell-based, human
From the text: as §4

[19] = test system: Human mantle cell lymphoma cell lines; assay: Cell viability, mantle cell lymphoma cell lines (overall conclusion); format: cell-based; conditions: in vitro, 48 hours
Description: as §5

[20] = test system: pAKT(S473) in JeKo and Mino cells; assay: Western blot, phosphorylation of AKT at Ser 473 in anti-IgM stimulated cells; format: cell-based, human; conditions: for Suppression of pAKT (Ser 473): anti-IgM stimulated JeKo and Mino cells, FIGS. 2A-2D; for Suppression of pAKT: JeKo cells stimulated with F(ab′) and anti-human IgM, various concentrations, FIG. 3B
Description: Phosphorylation of BTK at Tyr223 and AKT at Ser 473 were determined by Western blot analysis. The results are shown in FIGS. 2A-2B (JeKo cells) and FIGS. 2C-2D (Mino cells). Blots were reprobed for total BTK, AKT, and β-actin.

[21] = test system: JeKo cells; assay: Cell cycle analysis in JeKo cells; format: cell-based, human; conditions: MCL cells, 5 μM, FIG. 4
[22] = test system: breast cancer stem cells; conditions: women with breast tumors with high levels of HER2 protein; decreased from 11%; cited from earlier work
[23] = test system: pAKT in JeKo cells; assay: Washout Western blot for pAKT in IgM-stimulated JeKo cells; format: cell-based, human; conditions: 5 μM or 1 μM for 3 hours, washed with PBS three times, 4 hours recovery
[24] = test system: pBTK in JeKo cells; assay: Washout Western blot for pBTK in IgM-stimulated JeKo cells; format: cell-based, human; conditions: 5 μM or 1 μM for 3 hours, washed with PBS three times, 4 hours recovery
[25] = test system: PI3 kinases; conditions: cited from earlier work

C=CC(=O)N1CCOc2ccc(-c3csc4c(=O)cc(N5CCOCC5)oc34)cc21 [Compound 7, 1-[7-(5-Morpholino-7-oxo-4-oxa-1-thia-3-indenyl)-4-oxa-1-aza-2,3-dihydro-1H-naphth-1-yl]-2-propen-1-one]
pBTK suppression activity upon washout [1]: irreversible | IC50 [2]: < 1 µM | Suppression of pBTK (Tyr223) [3]: block the catalytic activity | Percentage cells in apoptosis ([4]; Early): +++ (between 10% and 30%) | Percentage cells in apoptosis ([4]; Late): ++ (between 5% and 10%) | Percentage cells in apoptosis ([4]; Total): +++ (between 10% and 30%) | IC50 [5]: < 1 µM | IC50 [6]: < 1 µM | IC50 [7]: < 1 µM | IC50 [8]: 1 to 10 µM | IC50 [9]: < 1 µM | IC50 [10]: < 1 µM | Release of BRD4 from chromatin [11]: released a fluorophore-tagged BRD4 fusion protein from chromatin | Inhibition of pAKT [12]: inhibits pAKT and in a dose dependent manner | IC50 [13]: < 1 µM | IC50 [14]: < 1 µM | IC50 [15]: 10 to 30 µM | Ratio C481S/WT [15]: 728 | Apoptosis compared with exposure to Ibrutinib [16]: much more apoptosis | Inhibition of pBTK [17]: inhibit pBTK | Percentage cells in apoptosis ([18]; JeKo-1, 24-hour, Early): + (less than 5%) | Percentage cells in apoptosis ([18]; JeKo-1, 24-hour, Late): +++ (between 10% and 30%) | Percentage cells in apoptosis ([18]; JeKo-1, 24-hour, Total): +++ (between 10% and 30%) | Percentage cells in apoptosis ([18]; JeKo-1, 48-hour, Early): +++ (between 10% and 30%) | Percentage cells in apoptosis ([18]; JeKo-1, 48-hour, Late): +++ (between 10% and 30%) | Percentage cells in apoptosis ([18]; JeKo-1, 48-hour, Total): ++++ (between 30% and 50%) | Potency in reducing mantle cell lymphoma viability as compared to Ibrutinib [19]: markedly more potent | Suppression of pAKT (Ser 473) [20]: block the catalytic activity | Cell cycle effect [21]: Cell Cycle Arrest

CS(=O)(=O)CCNCc1ccc(-c2ccc3ncnc(Nc4ccc(OCc5cccc(F)c5)c(Cl)c4)c3c2)o1 [Lapatinib]
Breast cancer stem cells in biopsies [22]: 5 % of cells

C=CC(=O)Nc1cccc(-c2csc3c(=O)cc(N4CCOCC4)oc23)c1 [Compound 1, 1-[m-(5-Morpholino-7-oxo-4-oxa-1-thia-3-indenyl)phenylamino]-2-propen-1-one]
Suppression of pBTK(Y223) [3]: suppressed | Suppression of pBTK (Tyr223) [3]: block the catalytic activity | pAKT after washing [23]: restored after washing | IC50 [5]: < 1 µM | IC50 [6]: < 1 µM | IC50 [7]: < 1 µM | IC50 [8]: 1 to 10 µM | IC50 [10]: < 1 µM | IC50 [13]: < 1 µM | IC50 [14]: 1 to 10 µM | Ratio C481S/WT [15]: >81 | pBTK inhibition after washing [24]: not diminished by washing | Potency in reducing mantle cell lymphoma viability as compared to Ibrutinib [19]: markedly more potent | Suppression of pAKT [20]: suppressed | Suppression of pAKT (Ser 473) [20]: block the catalytic activity

O=c1cc(N2CCOCC2)oc2c(-c3ccccc3)cccc12 [LY294002, 2-(4-morpholinyl)-8-phenyl-4H-1-benzopyran-4-one]
IC50 [25]: 1.4 µM

O=c1cc(N2CCOCC2)oc2c(-c3ccc4c(c3)OCCO4)csc12 [Compound 0, reference compound]
IC50 [2]: 1 to 10 µM | IC50 [5]: < 1 µM | IC50 [6]: 10 to 30 µM | IC50 [8]: 1 to 10 µM | IC50 [9]: < 1 µM | IC50 [10]: < 1 µM | IC50 [13]: < 1 µM | IC50 [14]: < 1 µM | IC50 [15]: 10 to 30 µM | Potency in reducing mantle cell lymphoma viability as compared to Ibrutinib [19]: markedly more potent

C=CC(=O)N1CCC[C@@H](n2nc(-c3ccc(Oc4ccccc4)cc3)c3c(N)ncnc32)C1 [Ibrutinib]
Percentage cells in apoptosis ([4]; Early): ++ (between 5% and 10%) | Percentage cells in apoptosis ([4]; Late): + (less than 5%) | Percentage cells in apoptosis ([4]; Total): +++ (between 10% and 30%) | IC50 [8]: 10 to 30 µM | IC50 [10]: 1 to 10 µM | IC50 [14]: > 50 µM | Percentage cells in apoptosis ([18]; JeKo-1, 24-hour, Early): + (less than 5%) | Percentage cells in apoptosis ([18]; JeKo-1, 24-hour, Late): + (less than 5%) | Percentage cells in apoptosis ([18]; JeKo-1, 24-hour, Total): + (less than 5%) | Percentage cells in apoptosis ([18]; JeKo-1, 48-hour, Early): + (less than 5%) | Percentage cells in apoptosis ([18]; JeKo-1, 48-hour, Late): + (less than 5%) | Percentage cells in apoptosis ([18]; JeKo-1, 48-hour, Total): ++ (between 5% and 10%)

C=CC(=O)Nc1ccc(-c2csc3c(=O)cc(N4CCOCC4)oc23)cc1 [Compound 13]
Suppression of pBTK(Y223) [3]: suppressed | IC50 [8]: < 1 µM | IC50 [10]: < 1 µM | IC50 [14]: < 1 µM | Potency in reducing mantle cell lymphoma viability as compared to Ibrutinib [19]: markedly more potent | Suppression of pAKT [20]: suppressed
